We go through 14 compounds from ChEMBL document CHEMBL1149305, “Charge and substituent effects on affinity and metabolism of benzbromarone-based CYP2C19 inhibitors” (J Med Chem, 2004).

Series [1] is described as follows: Dissociation constant, pKa of the compound. The class given is physicochemical.
Another series concerns the target Cytochrome P450 2C19 (Homo sapiens, UniProt P33261). Nature of the series: Inhibition of human CYP2C19. The class given is ADME.
The target in a further series is Cytochrome P450 2C9 (Homo sapiens, UniProt P11712). The experiment in a line: Inhibition of human CYP2C9.
Sequence of Cytochrome P450 2C9 (P11712 whole entry): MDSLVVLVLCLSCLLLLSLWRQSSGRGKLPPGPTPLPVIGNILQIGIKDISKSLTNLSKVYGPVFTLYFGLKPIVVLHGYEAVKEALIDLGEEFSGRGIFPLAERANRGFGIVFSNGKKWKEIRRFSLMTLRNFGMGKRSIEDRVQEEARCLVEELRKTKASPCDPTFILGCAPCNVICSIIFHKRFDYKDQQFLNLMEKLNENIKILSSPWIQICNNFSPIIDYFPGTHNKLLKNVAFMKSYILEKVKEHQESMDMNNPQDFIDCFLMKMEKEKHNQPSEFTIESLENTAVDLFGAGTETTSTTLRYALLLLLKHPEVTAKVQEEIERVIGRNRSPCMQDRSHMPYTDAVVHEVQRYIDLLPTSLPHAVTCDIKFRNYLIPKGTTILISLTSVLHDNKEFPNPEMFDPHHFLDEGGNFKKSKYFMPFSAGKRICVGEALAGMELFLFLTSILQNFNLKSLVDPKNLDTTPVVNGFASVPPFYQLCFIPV

Sequence of Cytochrome P450 2C19 (P33261 whole entry): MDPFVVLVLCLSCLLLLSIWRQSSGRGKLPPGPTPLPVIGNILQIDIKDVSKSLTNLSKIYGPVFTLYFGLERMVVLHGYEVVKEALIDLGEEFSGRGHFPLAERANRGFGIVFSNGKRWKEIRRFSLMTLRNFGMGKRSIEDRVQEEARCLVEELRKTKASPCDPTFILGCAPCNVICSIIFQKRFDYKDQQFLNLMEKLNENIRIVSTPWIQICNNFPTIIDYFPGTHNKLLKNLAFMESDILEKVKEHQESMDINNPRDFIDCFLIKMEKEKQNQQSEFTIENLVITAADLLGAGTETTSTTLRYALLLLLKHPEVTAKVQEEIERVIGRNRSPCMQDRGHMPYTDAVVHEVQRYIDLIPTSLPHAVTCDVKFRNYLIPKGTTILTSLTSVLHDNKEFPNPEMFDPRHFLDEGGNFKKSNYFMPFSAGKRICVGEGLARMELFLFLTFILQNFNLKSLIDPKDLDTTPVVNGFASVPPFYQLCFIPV

In series [1], `CCc1oc2ccccc2c1C(O)c1cc(Br)c(O)c(Br)c1` (configuration not stated) returned a pKa of 8.8. At Cytochrome P450 2C19, this compound yielded a Ki of 0.3 µM.

Regarding `CCc1oc2ccccc2c1C(=O)c1cc(C)c(OC)c(C)c1`, the Activity result in series [1] is given as “Not Active”. Besides, the Ki at Cytochrome P450 2C19 was determined as 0.25 µM.

As to `Cc1oc2ccccc2c1C(=O)c1cc(Br)c(O)c(Br)c1`, on Cytochrome P450 2C19, the inhibitory constant (Ki) came out at 2.4 µM.

In the case of `CCc1oc2ccccc2c1C(=O)c1cc(Cl)nc(Cl)c1`, the Activity entry in series [1] is recorded as “Not Active”. The Ki at Cytochrome P450 2C19 worked out at 13 µM.

As for `CCc1oc2ccccc2c1C(=O)c1cc(C)c(O)c(C)c1`, in series [1], the pKa worked out at 8.5. In addition, the Ki stood at 0.04 µM at Cytochrome P450 2C9 and 0.033 µM on Cytochrome P450 2C19.

`CCc1oc2ccccc2c1C(=O)c1ccc(N(C)C)cc1`: the Activity result in series [1] is given as “Not Active”. The affinity at Cytochrome P450 2C19, expressed as Ki, was 3.7 µM.

On to `COc1ccc(C(=O)c2c(C)oc3ccccc23)cc1`, for which, in series [1], the Activity result is on record as “Not Active”. The compound further yielded an inhibition constant Ki on Cytochrome P450 2C19 of 4.5 µM.

Consider `Cc1oc2ccccc2c1C(=O)c1ccc(O)cc1`, for which the pKa in series [1] was 8.4. This compound had an inhibitory constant (Ki) on Cytochrome P450 2C19 of 2.5 µM.

In turn, `Cc1oc2ccccc2c1C(=O)c1cccc(O)c1` returned a pKa in series [1] of 8.4. In addition, on Cytochrome P450 2C19, the affinity corresponds to a Ki of 4.5 µM.

As for `Cc1oc2ccccc2c1C(=O)c1cc(I)c(O)c(I)c1`, the pKa in series [1] was 5.2. Besides, at Cytochrome P450 2C19, the inhibition constant Ki is 7.2 µM.

Turning to `CCc1oc2ccccc2c1C(=O)Cc1cc(Br)c(O)c(Br)c1`, the pKa in series [1] was 8.6. The same compound came in with an inhibition constant Ki on Cytochrome P450 2C19 of 1.6 µM.

For `Cc1oc2ccccc2c1C(=O)C1CCCCC1`, in series [1], the Activity entry is “Not Active”. The compound further came in with a Ki at Cytochrome P450 2C19 of 13 µM.

Regarding `CCc1oc2ccccc2c1C(=O)c1cc(Br)c(OC)c(Br)c1`, the Activity result in series [1] was “Not Active”. Besides, on Cytochrome P450 2C19, the affinity, expressed as Ki, was 0.37 µM.

In series [1], `CCc1oc2ccccc2c1C(=O)c1cc(Br)c(O)c(Br)c1` [BENZBROMARONE] showed a pKa of 4.5.

Broadly, the pKa is the negative logarithm of the acid dissociation constant. A higher pKa goes with a weaker acid or stronger base. In general, Ki refers to the equilibrium dissociation constant of an inhibitor or competing ligand from its target. The low end stands for higher affinity, the high end for lower affinity.
